pIC50: −log10 of the molar value.

The target in this assay is human kinase Mps-1 (Homo sapiens (Human), UniProt P33981). Nature of the assay: Mps-1 kinase assay (TR-FRET). It counts as biochemical. The conditions noted are these: N-terminally GST-tagged human full length recombinant Mps-1; 10 μM ATP; 1 μM biotinylated peptide substrate; read-out: Mps1 IC50. The procedure, abridged: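 Compounds were tested against recombinant full-length Mps-1 bearing an N-terminal GST tag, about 1 nM final, with a biotinylated amide-capped peptide as substrate. Detection reagents were then bound for 1 h at 22° C and the product read by TR-FRET.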
human kinase Mps-1, sequence (P33981 whole entry): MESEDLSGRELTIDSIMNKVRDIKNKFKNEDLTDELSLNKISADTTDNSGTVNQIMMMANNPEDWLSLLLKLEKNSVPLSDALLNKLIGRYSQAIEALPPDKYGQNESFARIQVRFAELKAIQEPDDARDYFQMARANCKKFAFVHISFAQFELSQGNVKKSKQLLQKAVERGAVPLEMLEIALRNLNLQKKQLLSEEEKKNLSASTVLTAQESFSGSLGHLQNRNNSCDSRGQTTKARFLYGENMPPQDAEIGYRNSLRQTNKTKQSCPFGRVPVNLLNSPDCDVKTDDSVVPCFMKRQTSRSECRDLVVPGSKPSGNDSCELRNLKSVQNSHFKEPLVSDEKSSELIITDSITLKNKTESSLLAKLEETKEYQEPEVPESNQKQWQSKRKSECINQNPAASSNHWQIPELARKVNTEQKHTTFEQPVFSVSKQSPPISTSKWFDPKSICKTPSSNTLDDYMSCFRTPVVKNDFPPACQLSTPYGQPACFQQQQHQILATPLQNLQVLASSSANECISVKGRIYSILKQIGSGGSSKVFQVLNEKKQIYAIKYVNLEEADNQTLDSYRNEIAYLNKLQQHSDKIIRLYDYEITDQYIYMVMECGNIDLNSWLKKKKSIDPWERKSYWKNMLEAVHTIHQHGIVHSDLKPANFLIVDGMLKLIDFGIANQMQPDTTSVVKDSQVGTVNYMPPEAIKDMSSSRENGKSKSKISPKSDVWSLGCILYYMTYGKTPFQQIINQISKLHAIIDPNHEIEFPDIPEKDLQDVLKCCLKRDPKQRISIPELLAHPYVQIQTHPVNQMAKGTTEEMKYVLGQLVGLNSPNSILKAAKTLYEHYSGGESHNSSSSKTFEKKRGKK
As for `COc1ccc(Oc2cc(NCC3CCOCC3)c3ncn(-c4ccc(C(=O)NC5CC5)c(C)c4)c3c2)cc1SC` [Example 114B, N-cyclopropyl-4-{6-[4-methoxy-3-(methylsulfanyl)phenoxy]-4-[(tetrahydro-2H-pyran-4-ylmethyl)amino]-1H-benzimidazol-1-yl}-2-methylbenzamide], the pIC50 – broadly, the IC50 on a negative log10 scale, so that one unit is a factor of ten – is 8.17.
To `CNC(=O)c1ccc(-n2cnc3c(NCC4CCOCC4)cc(Oc4ccc(O)cc4F)cc32)cc1C` [Example 115A, 4-{6-(2-fluoro-4-hydroxyphenoxy)-4-[(tetrahydro-2H-pyran-4-ylmethyl)amino]-1H-benzimidazol-1-yl}-N,2-dimethylbenzamide] belongs 8.14; to `CNC(=O)c1ccc(-n2cnc3c(NCC4CCOCC4)cc(Oc4ccc(OC)cc4SC)cc32)cc1C` [Example 115B, 4-{6-[4-methoxy-2-(methylsulfanyl)phenoxy]-4-[(tetrahydro-2H-pyran-4-ylmethyl)amino]-1H-benzimidazol-1-yl}-N,2-dimethylbenzamide], 7.54; to `Cc1cc(-n2cnc3c(NCC4CCOCC4)cc(Oc4ccc(O)cc4F)cc32)ccc1C(=O)NC1CC1` [Example 116A, N-cyclopropyl-4-{6-(2-fluoro-4-hydroxyphenoxy)-4-[(tetrahydro-2H-pyran-4-ylmethyl)amino]-1H-benzimidazol-1-yl}-2-methylbenzamide], 9.00.
To `COc1ccc(Oc2cc(NCC3CCOCC3)c3ncn(-c4ccc(C(=O)NC5CC5)c(C)c4)c3c2)c(SC)c1` [Example 116B, N-cyclopropyl-4-{6-[4-methoxy-2-(methylsulfanyl)phenoxy]-4-[(tetrahydro-2H-pyran-4-ylmethyl)amino]-1H-benzimidazol-1-yl}-2-methylbenzamide] belongs 8.54; to `CCNC(=O)c1ccc(-n2cnc3c(NCC4CCOCC4)cc(Oc4ccc(O)cc4F)cc32)cc1C` [Example 117A, N-ethyl-4-{6-(2-fluoro-4-hydroxyphenoxy)-4-[(tetrahydro-2H-pyran-4-ylmethyl)amino]-1H-benzimidazol-1-yl}-2-methylbenzamide], 8.17; to `CCNC(=O)c1ccc(-n2cnc3c(NCC4CCOCC4)cc(Oc4ccc(OC)cc4SC)cc32)cc1C` [Example 117B, N-ethyl-4-[6-{4-methoxy-2-(methylsulfanyl)phenoxy]-4-[(tetrahydro-2H-pyran-4-ylmethyl)amino]-1H-benzimidazol-1-yl}-2-methylbenzamide], 7.59.

For the origin of these results see US9388140B2, “Substituted benzimidazoles” (priority 2011, dated 2016).
